Results taken from US20020044971A1, “Dissolution rate of poorly soluble drugs” (priority 2000, published 2002).
≈ marks a conversion by molar mass, not a printed value. Where two headings read alike, the source gives them in different places.

What was measured:
[1] = aqueous solubility, cited from earlier work
[2] = Volume of fluid required to achieve complete dissolution of the dose; type: physicochemical; conditions: for the dose listed in Table 1
Source text: The volume requirement of the boundary layer is a function of the solubilizing effect of the surfactant. This volume can be calculated by dividing the mass of the particle by the solubility of the drug.

| SMILES | YDISSOLUTION (volume of fluid required to achieve complete dissolution) [2] [L] | Solubility [1] [µg/mL] | Solubility ([1]; measured at 39° C.) [µg/mL] |
| --- | --- | --- | --- |
| CC(C)(C)NC(=O)[C@H]1CC[C@H]2[C@@H]3CC[C@H]4NC(=O)C=C[C@]4(C)[C@H]3CC[C@]12C [Finasteride] | 5.0 | 1 (≈ 2.68 µM) | – |
| CCC(C)n1ncn(-c2ccc(N3CCN(c4ccc(OCC5COC(Cn6cncn6)(c6ccc(Cl)cc6Cl)O5)cc4)CC3)cc2)c1=O (stereo not drawn) [Itraconozole] | 9.9 | 1 (≈ 1.42 µM) | – |
| C[C@H]1O[C@@H](O[C@H]2[C@@H](O)C[C@H](O[C@H]3[C@@H](O)C[C@H](O[C@H]4CC[C@@]5(C)[C@H](CC[C@@H]6[C@@H]5C[C@@H](O)[C@]5(C)[C@@H](C7=CC(=O)OC7)CC[C@]65O)C4)O[C@@H]3C)O[C@@H]2C)C[C@H](O)[C@@H]1O [Digoxin] | 0.021 | – | – |
| COC1=CC(=O)C[C@@H](C)[C@]12Oc1c(Cl)c(OC)cc(OC)c1C2=O [Griseofulvin] | 29.4 | – | 17 (≈ 48.2 µM) |
| CN1C(C(=O)Nc2ccccn2)=C(O)c2ccccc2S1(=O)=O [Piroxicam] | 8.2 | 10 (≈ 30.2 µM) | – |

Now from value to compound, other results behind:

| YDISSOLUTION (volume of fluid required to achieve complete dissolution) [2] [L] | SMILES | Solubility [1] [µg/mL] | Solubility ([1]; measured at 39° C.) [µg/mL] |
| --- | --- | --- | --- |
| 4.3 | NC(=O)N1c2ccccc2C=Cc2ccccc21 [Carbamazepine] | 400 (≈ 1690 µM) | – |
| 3.6 | O=C(O)c1cc(-c2ccc(F)cc2F)ccc1O [Diflumisal] | 10 (≈ 40 µM) | – |
| 2.0 | OC(Cn1cncn1)(Cn1cncn1)c1ccc(F)cc1F [Fluconazole] | 100 (≈ 327 µM) | – |
